Source: ChEMBL document CHEMBL5154849, “Overcoming undesirable hERG affinity by incorporating fluorine atoms: A case of MAO-B inhibitors derived from 1 H-pyrrolo-[3,2-c]quinolines” (Eur J Med Chem, 2022)

Assay: in vitro
Conditions: rat, liver microsomes

COc1cccc(Cn2ccc3c(N4CCC(F)(F)CC4)nc4ccccc4c32)c1
CLint scaled at 10 µM: 43 mL/min/kg
